The source made the active and inactive calls. The calls are words filed in the database; no cut-off is given here.
Tests used:
HT-29 [1] = experiment: Cytotoxicity against human HT-29 multicellular tumor spheroid cells at 0.15 to 20 uM incubated for 48 hrs by Hoechst and SYTOX staining based assay; format: functional, cell-based; details: dose 0.15-20 µM
[2] = target: T1, Dual specificity tyrosine-phosphorylation-regulated kinase 1B (Homo sapiens, UniProt Q9Y463); experiment: Inhibition of GST-tagged DYRK1B (unknown origin) assessed as reduction p27 Ser10 phosphorylation at 0.1 to 10 uM; details: dose 0.1-10 µM
Target sequence in this assay (Q9Y463 whole entry, looked up): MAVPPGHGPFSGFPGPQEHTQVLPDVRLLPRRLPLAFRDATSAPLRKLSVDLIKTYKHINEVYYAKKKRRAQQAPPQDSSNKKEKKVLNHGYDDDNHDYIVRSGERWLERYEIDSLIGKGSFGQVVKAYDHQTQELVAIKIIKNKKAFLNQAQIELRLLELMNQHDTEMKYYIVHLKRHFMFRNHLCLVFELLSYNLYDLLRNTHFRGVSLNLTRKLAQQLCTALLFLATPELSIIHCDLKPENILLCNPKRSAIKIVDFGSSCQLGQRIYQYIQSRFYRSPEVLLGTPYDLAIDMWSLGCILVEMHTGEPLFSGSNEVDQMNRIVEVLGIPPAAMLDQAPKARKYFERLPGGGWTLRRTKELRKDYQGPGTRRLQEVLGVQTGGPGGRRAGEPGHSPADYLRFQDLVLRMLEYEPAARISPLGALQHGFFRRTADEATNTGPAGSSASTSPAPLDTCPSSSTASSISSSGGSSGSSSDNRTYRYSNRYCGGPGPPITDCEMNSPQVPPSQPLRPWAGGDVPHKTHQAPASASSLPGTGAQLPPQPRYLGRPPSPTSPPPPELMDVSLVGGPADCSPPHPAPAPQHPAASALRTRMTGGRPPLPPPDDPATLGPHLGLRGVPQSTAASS

[3] = target: T1, Dual specificity tyrosine-phosphorylation-regulated kinase 1B; experiment: Inhibition of DYRK1B un human HT-29 cells assessed as reduction p27 Ser10 phosphorylation at 2.5 to 10 uM; format: cell-based; details: dose 2.5-10 µM
Target sequence in this assay (Q9Y463 whole entry, looked up): as above

HT-29 [4] = experiment: Cytotoxicity against human HT-29 multicellular tumor spheroid cells at 5 uM incubated for 48 hrs by Hoechst and SYTOX staining based assay; format: functional, cell-based
HT-29 [5] = experiment: Cytotoxicity against human HT-29 multicellular tumor spheroid cells at 5 uM incubated for 48 hrs under hypoxic conditions by Hoechst and SYTOX staining based assay; format: functional, cell-based
[6] = target: T1, Dual specificity tyrosine-phosphorylation-regulated kinase 1B; experiment: Inhibition of GST-tagged DYRK1B (unknown origin) incubated for 30 mins using DYRKtide by ADP-Glo assay
Target sequence in this assay (Q9Y463 whole entry): as the sequence (Q9Y463 whole entry, looked up) above

Compound: Fc1ccccc1-n1cc(-c2ccnc(NCc3ccncc3)n2)cn1
- Activity (HT-29 [1]): Active
- inhibition [2]: Active
- inhibition [3]: Active
- Activity (HT-29 [4]): Active
- Activity (HT-29 [5]): Active
- IC50 [6]: 4000 nM

Compound: COc1ccccc1-n1cc(-c2ccnc(NCc3c(C)n[nH]c3C)n2)cn1
- IC50 [6]: 3000 nM

Compound: Fc1ccccc1-n1cc(-c2ccnc(NC3CCOCC3)n2)cn1
- IC50 [6]: 2000 nM

Compound: CCNc1nccc(-c2cnn(-c3ccccc3F)c2)n1
- IC50 [6]: 3000 nM
